Results published in PMC3409115, “Diverse Inhibitor Chemotypes Targeting Trypanosoma cruzi CYP51” (PLoS Neglected Tropical Diseases, 2012).
Read-outs that look alike come from different tables or passages of the source.

Key:
[1] = system: T. cruzi-infected skeletal myoblasts (intracellular amastigotes); experiment: Hit cross-validation in T. cruzi-infected mammalian cells (image-based assay); format: cell-based, Trypanosoma cruzi; settings: for Intracellular amastigotes in DAPI images after 72 h treatment: Compound 1 at 0.123 µM and 10 µM, Compound 13 at 10 µM; for EC50: Trypanosoma cruzi, Myoblast
[2] = system: host cell (skeletal myoblasts, bovine embryo skeletal muscle or C2C12); experiment: Host cell toxicity in the cross-validation assay; format: cell-based; settings: host cells in cross-validation assay, up to 10 µM
[3] = system: T. cruzi trypomastigote strain CAI/72 in C2C12 myoblasts; experiment: Trypanocidal assay; format: cell-based, Trypanosoma cruzi; settings: 14 days treatment, then one week compound-free
Experimental: Compounds cross-validated with low EC50 against T. cruzi infected cells were further evaluated to determine the “cidal” concentration at which host cells are effectively cured, using the protocol adapted from Engel et al 1998 [30]. To allow long term treatment and avoid culture overgrowth, C2C12 myoblasts were seeded at low density in 96 well plates (10^3 cells/well) and cultured with DMEM H-21 medium supplemented with low FBS concentration (1%), 25 mM HEPES, 2 mM L-glutamine, 100 U/ml penicillin and 100 µg/ml streptomycin. The cells were infected with T. cruzi trypomastigote strain CAI/72 (5 parasites/cell) for 24 h and treated with 0, 0.04, 0.12, 0.37, 1.10, 3.30 or 10 µM test compounds in 100 µl of medium for 14 days. During the course of treatment, medium supplemented with test compounds was replaced every 72 h. After 14 days, drug pressure was withdrawn and incubation continued in the compound-free medium for another week, during which cultures were monitored for reappearance of T. cruzi trypomastigotes in the supernatant.

Structure (SMILES) | Intracellular amastigotes in DAPI images after 72 h treatment [1] | EC50 ([1]; 72 h, T. cruzi-infected myoblasts, 72 h treatment, repurchased compound, read-out: EC50 averaged from two independent cross-validation assays for individually repurchased hits) [nM] | EC50 ([1]; 72 h, T. cruzi-infected myoblasts, 72 h treatment, read-out: EC50 against T. cruzi parasites in HTS assay used to rank order the hits) [nM] | Toxicity score (highest percentage of host cell growth inhibition) [2] | Trypanocidal concentration [3] [µM] | EC50 ([1]; 72 h, T. cruzi-infected myoblasts, 72 h treatment, read-out: EC50 in image-based HTS cross-validation assay) [nM] | EC50 ([1]; in Mus musculus, T. cruzi amastigotes cultured in mouse myoblasts, averaged from two independent assays, read-out: EC50 in low throughput validation (repurchased hit)) [nM]
O=C(c1ccc(Cl)cc1)C(Oc1ccc(Cl)cc1)n1cncn1 (stereo not shown) [Compound 13, 2-(4-chlorophenoxy)-1-(4-chlorophenyl)-2-(1H-1,2,4-triazol-1-yl)ethanone] | elimination of intracellular amastigotes | 1300 | 1310 | 3 (3- 31-40%) | 2.5 | – | –
Brc1ccccc1OCCCCCCn1ccnc1 [Compound 1] | elimination of intracellular amastigotes | – | – | 2 (2-21-30%) | 0.04 | 70 | 17
